{"source": "patent US8697721B2", "about": "“Chromen-2-one derivatives and their use as monoamine neurotransmitter re-uptake inhibitors” (Aniona APS, priority 2009, dated 2014)", "assay_type_in_all_cases": "biochemical", "key": {"[1]": {"molecular_target": "T1, dopamine (DA) reuptake in synaptosomes (Rattus norvegicus, UniProt P23977)", "T1 construct": "in synaptosomes as described in WO 97/16451; from tissue", "T1 sequence (P23977 whole entry)": "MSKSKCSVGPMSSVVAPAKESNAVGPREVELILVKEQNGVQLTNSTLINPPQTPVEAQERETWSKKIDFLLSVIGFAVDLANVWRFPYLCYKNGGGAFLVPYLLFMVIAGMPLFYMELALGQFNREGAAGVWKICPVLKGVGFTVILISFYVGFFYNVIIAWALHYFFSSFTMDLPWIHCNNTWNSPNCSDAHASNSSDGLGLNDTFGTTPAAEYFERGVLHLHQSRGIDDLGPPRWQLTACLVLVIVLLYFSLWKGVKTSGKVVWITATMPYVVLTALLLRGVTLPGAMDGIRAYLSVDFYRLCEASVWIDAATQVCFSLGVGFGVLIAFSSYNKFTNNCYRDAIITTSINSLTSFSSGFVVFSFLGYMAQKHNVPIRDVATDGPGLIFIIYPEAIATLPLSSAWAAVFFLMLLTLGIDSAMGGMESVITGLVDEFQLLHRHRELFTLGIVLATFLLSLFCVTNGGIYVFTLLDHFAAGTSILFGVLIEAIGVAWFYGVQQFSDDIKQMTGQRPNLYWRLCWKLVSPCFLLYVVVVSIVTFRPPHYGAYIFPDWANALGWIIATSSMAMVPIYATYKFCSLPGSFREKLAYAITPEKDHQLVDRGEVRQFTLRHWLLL", "experiment": "In vitro inhibition of 3H-DA reuptake in synaptosomes", "conditions": "mean ± spread (n), read-out: DA-uptake IC50", "experimental": "(§1) The compound was tested for its ability to inhibit the reuptake of the monoamine neurotransmitters dopamine (DA) noradrenaline (NA) and serotonine (5-HT) in synaptosomes as described in WO 97/16451.\n(§2) The test values are given as IC50 (the concentration (μM) of the test substance which inhibits the specific binding of ^3H-DA, ^3H-NA, or ^3H-5-HT by 50%)."}, "[2]": {"molecular_target": "T2, noradrenaline (NA) reuptake in synaptosomes (Rattus norvegicus, UniProt Q63380)", "T2 construct": "in synaptosomes as described in WO 97/16451; from tissue", "T2 sequence (Q63380 1-617)": "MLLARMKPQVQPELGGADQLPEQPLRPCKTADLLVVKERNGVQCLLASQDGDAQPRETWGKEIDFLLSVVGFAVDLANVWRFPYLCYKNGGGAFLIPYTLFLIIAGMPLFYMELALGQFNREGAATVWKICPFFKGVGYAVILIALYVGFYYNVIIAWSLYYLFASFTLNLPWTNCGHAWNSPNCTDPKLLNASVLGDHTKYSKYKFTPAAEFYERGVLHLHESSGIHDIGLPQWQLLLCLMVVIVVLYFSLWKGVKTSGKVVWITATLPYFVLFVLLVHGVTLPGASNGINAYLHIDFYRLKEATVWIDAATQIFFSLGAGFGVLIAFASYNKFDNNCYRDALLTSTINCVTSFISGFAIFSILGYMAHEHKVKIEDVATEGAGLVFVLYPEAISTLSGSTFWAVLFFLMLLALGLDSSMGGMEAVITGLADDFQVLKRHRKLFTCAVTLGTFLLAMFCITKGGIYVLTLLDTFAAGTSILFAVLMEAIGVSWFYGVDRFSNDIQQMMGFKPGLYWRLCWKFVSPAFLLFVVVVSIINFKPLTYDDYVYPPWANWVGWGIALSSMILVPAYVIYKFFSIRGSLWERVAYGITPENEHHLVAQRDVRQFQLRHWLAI", "experiment": "In vitro inhibition of 3H-NA reuptake in synaptosomes", "conditions": "mean ± spread (n), read-out: NA-uptake IC50", "experimental": "as §1, §2"}, "[3]": {"molecular_target": "T3, serotonine (5-HT) reuptake in synaptosomes (Rattus norvegicus, UniProt P31652)", "T3 construct": "in synaptosomes as described in WO 97/16451; from tissue", "T3 sequence (P31652 whole entry)": "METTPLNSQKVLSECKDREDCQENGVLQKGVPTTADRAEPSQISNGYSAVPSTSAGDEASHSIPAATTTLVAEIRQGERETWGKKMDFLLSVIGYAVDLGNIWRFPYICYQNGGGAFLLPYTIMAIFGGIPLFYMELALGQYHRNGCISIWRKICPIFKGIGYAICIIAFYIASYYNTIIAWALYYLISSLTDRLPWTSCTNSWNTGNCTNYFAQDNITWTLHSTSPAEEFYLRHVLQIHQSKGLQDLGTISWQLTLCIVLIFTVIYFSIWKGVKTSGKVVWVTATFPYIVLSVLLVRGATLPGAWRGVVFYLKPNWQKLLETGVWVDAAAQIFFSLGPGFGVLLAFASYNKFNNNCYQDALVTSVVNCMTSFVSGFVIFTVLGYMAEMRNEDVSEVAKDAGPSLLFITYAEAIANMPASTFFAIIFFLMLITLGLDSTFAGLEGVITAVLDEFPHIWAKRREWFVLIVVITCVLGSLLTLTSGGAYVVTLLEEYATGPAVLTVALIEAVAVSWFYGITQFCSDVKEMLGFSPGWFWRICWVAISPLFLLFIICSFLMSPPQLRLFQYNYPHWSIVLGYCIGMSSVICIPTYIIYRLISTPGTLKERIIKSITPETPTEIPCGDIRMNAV", "experiment": "In vitro inhibition of 3H-5-HT reuptake in synaptosomes", "conditions": "mean ± spread (n), read-out: 5-HT-uptake IC50", "experimental": "as §1, §2"}}, "note": "Where a name gives a salt, the structure may show the parent alone."}
{"molecule": "Cc1cc2ccc(O[C@@H]3C[C@H]4CC[C@@H](C3)N4)cc2oc1=O", "note": "[Compound 1.1, exo-7-[(8-Aza-bicyclo[3.2.1]oct-3-yl)oxy]-3-methyl-chromen-2-one hydrochloric Acid Salt]", "values": [{"measurement": "IC50", "setting": "[1]", "result": "170 ± 21", "unit": "nM"}, {"measurement": "IC50", "setting": "[2]", "result": "11 ± 6.1", "unit": "nM"}, {"measurement": "IC50", "setting": "[3]", "result": 0.76, "unit": "nM"}]}
